# Assay results published in patent US20260132129A1 (Genesis Therapeutics, Inc., priority 2022, published 2026).
# Biological target: T1, PI3Kα H1047R (T47D cells) (Homo sapiens, UniProt P42336, H1047R)
# T1 construct: endogenous in cells; host or cells: T47D cells
# Assay: PI3Kα cellular assay: pAKT HTRF in T47D cells after EGF stimulation
# Format: cell-based
# Conditions: for IC50: T47D cells (PI3Kα H1047R), pAKT S473 HTRF
# Procedure: SKBR3 or T47D cells are seeded in DMEM containing 10% FBS at 25k cells/well into 96-well cell culture format. Cells are incubated overnight at 37° C. in a 5% CO2 incubator and the following day cell media is aspirated, adherent cells are washed 1× with room temperature PBS prior to serum-free media application. Cells are returned to 37° C. 5% CO2 incubator and incubated a further 16 hrs. Compounds are added to serum starved adherent cells with a top dose of 10,000 nM and 3× multiple dose reductions for a minimum dose of 0.5 nM diluted in DMSO. Cell/compound incubation continues for 1 hr in a 37° C., 5% CO2 incubator prior to 10 minute PIK3CA stimulation with 20 ng/ml EGF. Cells treated with 0.1% DMSO and 20 ng/mL EGF are employed as negative control, cells treated with 10 uM Alpelisib and 20 ng/mL EGF are employed as a positive control. After 10 mins, plates are removed from incubator and cells are lysed with buffer and shaking 45 minutes. […] 384 well plate is left overnight at room temperature before reading HTRF on an Envision plate reader.
# ND denotes value not determined with that assay for the specified compound; • for T47D (H1047R) selectivity over SKBR3 (WT): A denotes >20-fold; B denotes 20-fold≥value>5-fold; C denotes ≤5-fold. ND denotes value not determined with that assay for the specified compound; and • for T47D pAKT lipophilic efficiency (LiPE): A denotes >4; B denotes 4≥value>2; C denotes ≤2. ND denotes value not determined with that assay for the specified compound.
# [1] = selectivity of T47D (H1047R) over SKBR3 (WT) pAKT IC50
# [2] = selectivity T47D (H1047R) over SKBR3 (WT), pAKT HTRF
# [3] = 1 hr compound, 20 ng/ml EGF 10 min
# T1 sequence (P42336 whole entry H1047R): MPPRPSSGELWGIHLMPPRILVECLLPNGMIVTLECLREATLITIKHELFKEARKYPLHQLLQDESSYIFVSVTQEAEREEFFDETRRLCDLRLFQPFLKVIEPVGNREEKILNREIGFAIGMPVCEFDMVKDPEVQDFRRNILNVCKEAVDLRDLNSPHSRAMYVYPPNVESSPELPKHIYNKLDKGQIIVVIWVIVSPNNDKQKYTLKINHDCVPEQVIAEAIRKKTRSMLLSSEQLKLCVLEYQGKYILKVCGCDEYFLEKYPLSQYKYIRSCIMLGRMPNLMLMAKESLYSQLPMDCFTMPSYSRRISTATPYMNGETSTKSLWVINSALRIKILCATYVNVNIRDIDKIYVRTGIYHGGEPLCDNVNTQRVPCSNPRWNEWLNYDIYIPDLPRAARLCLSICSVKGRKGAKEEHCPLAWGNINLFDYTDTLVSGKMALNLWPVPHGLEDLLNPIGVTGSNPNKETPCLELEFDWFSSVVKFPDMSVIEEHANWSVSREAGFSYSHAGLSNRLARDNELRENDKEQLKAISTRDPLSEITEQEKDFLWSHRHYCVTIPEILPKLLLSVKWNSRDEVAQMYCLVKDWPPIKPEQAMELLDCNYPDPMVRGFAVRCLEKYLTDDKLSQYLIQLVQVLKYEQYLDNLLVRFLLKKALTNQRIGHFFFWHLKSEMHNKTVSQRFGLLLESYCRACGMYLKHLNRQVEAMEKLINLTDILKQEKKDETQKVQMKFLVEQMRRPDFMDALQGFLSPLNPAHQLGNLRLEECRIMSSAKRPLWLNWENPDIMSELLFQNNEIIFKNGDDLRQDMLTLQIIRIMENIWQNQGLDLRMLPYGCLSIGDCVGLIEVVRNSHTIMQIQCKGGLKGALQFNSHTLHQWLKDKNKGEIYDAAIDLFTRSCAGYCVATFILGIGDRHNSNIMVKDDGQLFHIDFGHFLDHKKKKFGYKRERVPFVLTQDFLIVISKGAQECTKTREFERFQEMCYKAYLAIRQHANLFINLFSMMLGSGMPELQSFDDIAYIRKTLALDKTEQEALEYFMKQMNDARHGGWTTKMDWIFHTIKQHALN
# T1 sequence (P27986 whole entry partner): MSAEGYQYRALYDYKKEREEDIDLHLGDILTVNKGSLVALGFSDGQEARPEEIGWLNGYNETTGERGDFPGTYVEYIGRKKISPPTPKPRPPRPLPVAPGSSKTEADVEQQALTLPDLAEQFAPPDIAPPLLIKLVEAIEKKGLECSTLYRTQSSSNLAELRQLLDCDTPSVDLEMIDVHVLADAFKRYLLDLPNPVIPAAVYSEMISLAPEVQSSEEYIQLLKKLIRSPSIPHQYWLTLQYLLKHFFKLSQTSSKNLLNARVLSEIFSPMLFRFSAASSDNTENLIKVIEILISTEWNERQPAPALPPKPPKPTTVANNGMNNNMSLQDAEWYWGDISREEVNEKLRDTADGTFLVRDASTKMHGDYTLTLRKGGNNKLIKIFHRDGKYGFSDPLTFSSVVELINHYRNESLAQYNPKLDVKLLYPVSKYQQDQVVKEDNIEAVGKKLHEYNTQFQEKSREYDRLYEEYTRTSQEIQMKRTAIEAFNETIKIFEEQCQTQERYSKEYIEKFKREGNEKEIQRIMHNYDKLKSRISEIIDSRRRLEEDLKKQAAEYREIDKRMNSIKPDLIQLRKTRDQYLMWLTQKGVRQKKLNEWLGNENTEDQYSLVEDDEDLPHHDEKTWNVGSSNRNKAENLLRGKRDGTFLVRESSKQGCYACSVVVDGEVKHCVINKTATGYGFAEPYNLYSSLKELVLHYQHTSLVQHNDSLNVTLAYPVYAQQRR
IC50 (EGF stimulation) [nM],T47D pAKT S473 HTRF IC50 (H1047R): T47D (H1047R) selectivity over SKBR3 (WT) [1],T47D pAKT S473 HTRF IC50 (H1047R): T47D (H1047R) selectivity over SKBR3 (WT) [2],IC50 [3] [nM],Compound
< 100,A (A denotes >20-fold),,,"Cc1cc([C@@H](C)Nc2ccccc2C(=O)O)c2nc(-c3ccc(Cl)cc3)c(C)c(=O)n2c1 (single isomer, unassigned) [Compound 963]"
< 100,A (A denotes >20-fold),,,"Cc1cc([C@@H](C)Nc2ccccc2C(=O)O)c2nc(-c3cccc(C#N)c3)c(C)c(=O)n2c1 (single isomer, unassigned) [Compound 967]"
< 100,A (A denotes >20-fold),,,"Cc1cc([C@@H](C)Nc2ccccc2C(=O)O)c2nc(-c3cccc(F)c3)c(C)c(=O)n2c1 (single isomer, unassigned) [Compound 969]"
< 100,A (A denotes >20-fold),,,"Cc1cc([C@@H](C)Nc2ccccc2C(=O)O)c2nc(-c3cccc(C4CC4)c3)c(C)c(=O)n2c1 (single isomer, unassigned) [Compound 971]"
< 100,A (A denotes >20-fold),,,"Cc1cc([C@@H](C)Nc2ccccc2C(=O)O)c2nc(-c3ccc(C4CC4)nc3)c(C)c(=O)n2c1 (single isomer, unassigned) [Compound 973]"
< 100,A (A denotes >20-fold),,,"Cc1cc([C@@H](C)Nc2ccccc2C(=O)O)c2nc(-c3ccc(C#N)nc3)c(C)c(=O)n2c1 (single isomer, unassigned) [Compound 975]"
500 to 2000,B (B denotes 20-fold≥value>5-fold),,,"Cc1cc([C@H](C)Nc2ccccc2C(=O)O)c2nc(C3Cc4ccccc4C3)c(C3CC3)c(=O)n2c1 (single isomer, unassigned) [Compound 983]"
> 2000,,C (C denotes ≤5-fold),,"Cc1cc([C@@H](C)Nc2ccccc2C(=O)O)c2nc(OC3CCOCC3)c(C)c(=O)n2c1 (single isomer, unassigned) [Compound 1370]"
< 100,,A (A denotes >20-fold),,"Cc1cc([C@H](C)Nc2ccccc2C(=O)O)c2nc(OC3CCOCC3)c(C)c(=O)n2c1 (single isomer, unassigned) [Compound 1371]"
100 to 500,,A (A denotes >20-fold),,"Cc1cc([C@@H](C)Nc2cccc3onc(O)c23)c2nc(-c3cccc(F)c3)c(C)c(=O)n2c1 (single isomer, unassigned) [Compound 1374]"
< 100,,A (A denotes >20-fold),,"Cc1cc([C@H](C)Oc2ccccc2C2(O)CS(=O)(=O)C2)c2nc(-c3cccc(F)c3)c(C)c(=O)n2c1 (single isomer, unassigned) [Compound 1393]"
,,A (A denotes >20-fold),100 to 500,Cc1cc([C@@H](C)Nc2ccccc2C(=O)O)c2nc(N3CCCCC3)cc(=O)n2c1 [Compound 7]
,,C (C denotes ≤5-fold),> 2000,Cc1cc([C@H](C)Nc2ccccc2C(=O)O)c2nc(N3CCCCC3)cc(=O)n2c1 [Compound 8]
,,C (C denotes ≤5-fold),> 2000,CC1=CN2C(=O)CC(N3CCOCC3)N=C2C(C(C)Nc2ccccc2)=C1 (centres unmarked) [Compound 47]

Compound,IC50 (EGF stimulation) [nM],T47D pAKT S473 HTRF IC50 (H1047R): T47D (H1047R) selectivity over SKBR3 (WT) [1],T47D pAKT S473 HTRF IC50 (H1047R): T47D (H1047R) selectivity over SKBR3 (WT) [2],IC50 [3] [nM]
"Cc1cc([C@@H](C)Nc2ccccc2C(=O)O)c2nc(-c3ccc(Cl)cc3F)c(C)c(=O)n2c1 (single isomer, unassigned) [Compound 965]",< 100,A (A denotes >20-fold),,
"Cc1cc([C@H](C)Nc2ccccc2C(=O)O)c2nc(-c3cnc(C#N)c(Cl)c3)c(C)c(=O)n2c1 (single isomer, unassigned) [Compound 978]",< 100,A (A denotes >20-fold),,
